# According to US20070021355A1, “Antidepressants or foods and beverage for antidepression” (priority 2003, published 2007):
# Legend:
# Assay type in all cases: in vivo
# [1] = tested on: reserpine-administered mice; test: Action on reserpine-induced drop in the quantity of spontaneous motion
# Method: Male ddY mice (4 weeks old) were subcutaneously administered reserpine (2 mg/kg) (Apoplon injection 1 mg, product of Daiichi Pharmaceutical Co., Ltd.). These mice were divided into two groups: one to which Compound 1 (100 mg/kg) was intraperitoneally administered once per day for four days (reserpine+Compound 1-administered group) and the other to which only a solvent was administered (reserpine+solvent-administered group). Reserpine and Compound 1 were administered after being dissolved in a physiological saline. After the last administration, the mice were immediately put into breeding cages equipped with an infrared beam sensor (NS-AS01, Neuroscience, Inc.). After the last administration, the quantity of spontaneous motion in each 30-minute period was measured for 360 minutes with an infrared beam sensor device for measuring the quantity of spontaneous motion (AB system, Neuroscience, Inc.) and the measured values were summed up on a specific purpose computer via an interface (B060CT8H06, Neuroscience, Inc). Separately, another group of mice which was administered no reserpine was tested.
# [2] = tested on: reserpine-administered mice; test: Action on reserpine-induced temperature drop (body temperature); conditions: for Body temperature: male ddY mice, reserpine 2 mg/kg s.c., 100 mg/kg i.p. once per day for two days, mean ± standard error
# Method: (§1) Male ddY mice (4 weeks old) were subcutaneously administered reserpine (2 mg/kg) (Apoplon injection 1 mg, product of Daiichi Pharmaceutical Co., Ltd.). These mice were divided into two groups: one to which Compound 1 (100 mg/kg) was intraperitoneally administered once per day for two days (reserpine+Compound 1-administered group) and the other to which only a solvent was administered (reserpine+solvent-administered group). Reserpine and Compound 1 were administered after being dissolved in a physiological saline. The body temperature of the mice was measured 0.5, 1, 3 and 6 hours after the last administration. Separately, a solvent was administered to another group of mice without reserpine administration.
# [3] = tested on: mice fed with a vitamin B deficient food; test: Action on depressive behavior induced by vitamin B deficient food (swimming patterns)
# Method: Male ddY mice (3 weeks old) were fed with a feed deficient in vitamin B1, vitamin B12 and folic acid for 8 days and then divided into two groups: one to which Compound 1 (100 mg/kg) was intraperitoneally administered once per day for 11 days (vitamin deficient food+Compound 1-administered group) and the other to which only a solvent was administered (vitamin deficient food+solvent-administered group). Compound 1 was administered after being dissolved in a physiological saline. Two hours after the last administration, the mice were put in a plastic cylindrical tub (diameter: 18 cm, height: 40 cm, water depth: 15 cm, water temperature: ca. 23° C.), followed by measurement of the time of their struggle, swimming and immobility in 10 minutes. Separately, another group of mice fed with a normal food was tested.
# [4] = tested on: reserpine-administered mice; test: Action on reserpine-induced blepharoptosis; conditions: for Blepharoptosis score: score 1 completely opened to 5 completely closed, reserpine 2 mg/kg s.c., 100 mg/kg i.p. once per day for two days, mean ± standard error
# Method: as §1, with “The level” for “The body temperature”, “of blepharoptosis” for “of the mice”, “was scored” for “was measured”, “last administration (score 1: completely opened, score 2: ¼ closed, score 3: ½ closed, score 4: ¾ closed, and score 5: completely closed).” for “last administration.”
# [5] = tested on: 5-HT and 5-HIAA in the hypothalamus of mice; test: Action on the amount of amine in the brain (5-HT and 5-HIAA in the hypothalamus); conditions: 100 mg/kg i.p.
# Method: Male ddY mice (4 weeks old) were intraperitoneally administered Compound 1 (100 mg/kg) (Compound 1-administered group) and their brains were excised 30 and 60 minutes after the administration to measure the amounts of serotonin (5-HT) and its metabolite 5-hydroxyindole-3-acetic acid (5-HIAA) in the hypothalamus. Compound 1 was administered after being dissolved in a physiological saline. Separately, another group of mice was administered only a solvent (solvent-administered group) and the amounts of 5-HT and 5-HIAA were measured in the same manner.
# [6] = 30 minute after last administration
# [7] = 60 minute after last administration
# [8] = 180 minute after last administration
# [9] = 360 minute after last administration
# [10] = vitamin B deficient food, 100 mg/kg i.p. once per day for 11 days, two hours after last administration, time in 10 minutes, mean ± standard error
# [11] = male ddY mice, brains excised 30 and 60 minutes after administration, mean ± standard error
smiles,measurement,setting,value
"NC(Cc1c([C@@H]2O[C@@H](CO)[C@H](O)[C@@H](O)[C@H]2O)[nH]c2ccccc12)C(=O)O (stereo partly drawn) [Compound 1, 2-amino-3-[2-(α-L-mannopyranosyl]indol-3-yl]propionic acid]",Effect on reserpine-induced drop in quantity of spontaneous motion (in words),[1]; 100 mg/kg i.p.,showed the action to increase the quantity of spontaneous motion
same,Quantity of spontaneous motion in 360 minutes,"[1]; reserpine 2 mg/kg s.c., 100 mg/kg i.p. once per day for four days, infrared beam sensor, mean ± standard error",2464.2 ± 594.6 count
same,Effect on body temperature of reserpine-administered mice (in words),[2]; 100 mg/kg i.p.,significantly raised the body temperature
same,Body temperature,[2]; [6],***36.1 ± 0.2 °C
same,Body temperature,[2]; [7],** 35.4 ± 0.1 °C
same,Body temperature,[2]; [8],** 35.2 ± 0.3 °C
same,Body temperature,[2]; [9],** 34.9 ± 0.4 °C
same,"Effect on struggle, swimming and immobility time of mice on vitamin B deficient food (in words)",[3]; 100 mg/kg i.p.,improved these actions
same,Swimming pattern: Immobility,[3]; [10],***35.6 ± 15.4 second
same,Swimming pattern: Struggle,[3]; [10],***2.4 ± 2.4 second
same,Swimming pattern: Swimming,[3]; [10],***562.0 ± 14.2 second
same,Effect on reserpine-induced blepharoptosis (in words),[4]; 100 mg/kg i.p.,showed the action to improve the condition
same,Blepharoptosis score,[4]; [6],***3.0 ± 0.4
same,Blepharoptosis score,[4]; [7],** 3.1 ± 0.3
same,Blepharoptosis score,[4]; [8],** 3.3 ± 0.3
same,Blepharoptosis score,[4]; [9],** 3.3 ± 0.2
same,Effect on contents of 5-HT and 5-HIAA in the hypothalamus (in words),[5],increased the contents of 5-HT and 5-HIAA
same,Content of 5-HIAA in the hypothalamus,[5]; [11],374.1 ± 26.7 ng/g wet weight
same,Content of 5-HT in the hypothalamus,[5]; [11],815.0 ± 39.1 ng/g wet weight
